Marks after values point to notes of the source that are not given here.
Columns and labels:
[1] = Antioxidant activity measurement (DPPH); format: biochemical; conditions: DPPH % after 60 minutes; for DPPH for moiety alone [%] ± SD, n = 3: free moiety, lower = more antioxidant
[2] = Viscosity and pH of formulations after steam sterilization; format: physicochemical; conditions: formulation after steam sterilization
Description: The gel is steam sterilized 10 minutes at 121° C. with an entire cycle of 35 minutes. For the viscosity, gels are measured with the rheological program presented before.
The target characteristics are a viscosity after heat sterilization of around 1000 [mPas], neutrality and isotonicity to plasma (around 280 [mOsmol]) in common with state of the art commercial formulations such as Ostenil©.

New-Zealand rabbits = assay: Intra-articular biocompatibility test in rabbit; format: in vivo
Description: Twelve male New-Zealand rabbits are kept in individual cages 2 weeks after reception before injection. The day of injection, they are anesthetized with Ketamin©/Domitor©, their posterior articulations shaved and disinfected with Vetedine© soap and solution. 200 ul of the selected formulations are injected into the articulations. The rabbit is then revived with Atipam©. The formulations are randomized for rabbits as well as for articulations and injected blindly.
Twice a week, a clinical examination is performed comprising the following points. For the general state; vigilance (at distance from the cage: normal, diminished, sleepy, enhanced), movements (at distance from the cage: normal, diminished), limb ledge (at distance from the cage: yes, no), limp (at distance from the cage: yes, no), hair state: (smooth and shiny, dull, bristling, dirty zones, hairless zones), wound: (yes, no), abnormal secretion: (yes, no), mucosal color: (pink, blade, congested, cyanosed). For the injected joints; swelling (from 0 to 3, 3 being strongest swelling), flow at the injection site (0-3), heat (0-3), palpation pain (from 0 to 3), mobilization pain (0-3), redness (0-3), hematoma (0-3). An echography is also performed under anesthesia comprising the following […] (external lateral, internal lateral and proximal) according to a protocol published in the literature and provides information about the presence of liquid, osteophytes and any severe cartilage erosion. After one month observation, the rabbits are sacrificed with intra-muscular injection of Ketamin©/Domitor© and intra-cardiac Dolethal©. The articulations are dissected and photographed before and after china ink embodiment to assess the state of the rotula, condyl, tibia and trochlea cartilage by a visual analogue scale (VAS) expressed in percentage of the structure degraded and by osteophytis scoring (OS) giving the presence or absence of osteophytes (0: absent, 1: present).
The femoral and tibial parts are fixed in 10% formalin solution and decalcified with Kristenson solution from Chimie-Plus Laboratoire (Denice, France) during several weeks. Samples are cut in two parasagittal sections for medial femoral and tibial condyles (left and right) and then paraffin embedded and sectioned into 4 μm thick slices. Sections were stained with Safranin O-fast green for cartilage. Synovial membranes were fixed in 10% formalin solution, cut in two or three parallel sections, paraffin embedded and sectioned into 4 μm thick slices. Each paraffin block was sectioned in three slides [one stained with hematoxylin, eosin and saffron (HES), and two stained with hematoxylin and eosin (HE)]. Histological features were evaluated in a blinded fashion except for control rabbits. Histological lesions were evaluated and scored according the OARSI histopathology initiative; -recommendations for histological assessments of osteoarthritis in the rabbit (Osteoarthritis and cartilage 18 (2010) S53-S65). Microscopic scoring of cartilage alterations, two sections per condyle were evaluated allowing a semi-quantitative grading. Several parameters were evaluated: Safranin O-fast green staining, structure, chondrocytes density, cluster formation. For microscopic scoring of synovial alterations, three sections per synovial membrane were evaluated, allowing semi-quantitative grading. Several parameters were evaluated: synoviocytes proliferation, synoviocytes hypertrophy, granulocytic infiltration, lymphoplasmacytic infiltration, lymphoplasmacytic aggregates follicles, villous hyperplasia, proliferation of fibroblasts/fibrocytes, proliferation of blood vessels, cartilage/bone detritus presence and hemosiderosis.
The above mentioned formulations were tested in term of intra-articular biocompatibility in the rabbit model; Conjugated HA linked to 4AR (n=4), unconjugated HA mixed with 4AR (n=4), 4AR (n=4) and as controls; physiological serum (n=2), untreated (n=2) and Ostenil© (n=4).

[3] = reference [22]; cited from earlier work
[4] = Viscosity stability in an oxidative environment (Weissberger's oxidative system, CuCl2 + ascorbic acid); conditions: gel 1 %
[5] = Water solubility of the moieties; format: physicochemical; conditions: free moiety
[6] = HA conjugate (native HA), for 4AR first value, 14 % grafting

Q: Which “DPPH [%] ± SD, n = 3” value ([1]; 4AR conjugate with 57 % grafting (second value of the cell)) does the source give for `Nc1ccc(O)cc1O` [4AR, 4-aminoresorcinol] here?
A: Its value is 37%.

Q: And the “DPPH [%] ± SD, n = 3” value [1, 6]?
A: Its value is 71%.

Q: And the “DPPH for moiety alone [%] ± SD, n = 3” value [1]?
A: Its value is 28%.

Q: And the pH [2]?
A: Its pH is 7.25.

Q: And the “Tibia OS” value (New-Zealand rabbits; 0 absent, 1 present, one month)?
A: The value was 0%.

Q: What about the “Trochlea OS” value (New-Zealand rabbits; 0 absent, 1 present, one month) of the same compound?
A: Its value is 0%.

Q: And the “Rotula OS” value (New-Zealand rabbits; 0 absent, 1 small osteophyte present, one month)?
A: Its value is 0%.

Q: And the “Condyl OS, ext” value (New-Zealand rabbits; external, 0 absent, 1 present, one month)?
A: Its value is 0/0%.

Q: And the “Condyl VAS score, ext” value (New-Zealand rabbits; external, one month)?
A: The value was 0/0%.

Q: What about the “Tibia VAS score, ext” value (New-Zealand rabbits; external, one month) of the same compound?
A: The value was 0***/0*** %.

Q: And the “Condyl OS, int” value (New-Zealand rabbits; internal, 0 absent, 1 present, one month)?
A: Its value is 0/0%.

Q: What about the “Condyl VAS score, int” value (New-Zealand rabbits; internal, one month) of the same compound?
A: Its value is 0/0%.

Q: What about the “Tibia VAS score, int” value (New-Zealand rabbits; internal, one month) of the same compound?
A: The value was 0***/0*** %.

Q: What about the “Meniscus lesion (int/ext)” value (New-Zealand rabbits; one month) of the same compound?
A: Its value is 0.

Q: What about the “Synvovial membrane Fibrosis” value (New-Zealand rabbits; one month) of the same compound?
A: The value was 0.

Q: And the “Synvovial membrane Inflamation” value (New-Zealand rabbits; one month)?
A: Its value is 0.

Q: What about the “Trochlea VAS score” value (New-Zealand rabbits; one month) of the same compound?
A: Its value is 0-10* %.

Q: And the “Rotula VAS score” value (New-Zealand rabbits; percentage of structure degraded, one month after 200 ul intra-articular)?
A: The value was 0%.

Q: And the “intra-articular biocompatibility (in words)” value (New-Zealand rabbits; single injection, one month evaluation)?
A: Its value is “no sign of non-biocompatibility”.

Q: And the “cytotoxicity (in words)” value [3]?
A: Its value is “potent cytotoxic agent”.

Q: And the gain of viscosity ([4]; during the 36 minutes of measurement, Weissberger oxidative system, n=1)?
A: Its gain of viscosity is 40%.

Q: With `Nc1ccc(C(=O)O)c(O)c1` [4ASA, 4-aminosalicylic acid] as the compound, how does the “DPPH [%] ± SD, n = 3” value [1, 6] read?
A: The value was 96%.

Q: What about the “DPPH for moiety alone [%] ± SD, n = 3” value [1] of the same compound?
A: The value was 27%.

Q: And the “water solubility (in words)” value [5]?
A: The value was “low water solubility”.

Q: What does the source list for `Nc1ccc(O)c(C(=O)O)c1` [5ASA, 5-aminosalicylic acid]?
A: DPPH [%] ± SD, n = 3 [1, 6]: 67%; DPPH for moiety alone [%] ± SD, n = 3 [1]: 34%

Q: Which “DPPH [%] ± SD, n = 3” value [1, 6] does the source give for `Cc1cc(=O)oc2cc(N)ccc12` [AMC] here?
A: The value was 61%.

Q: And the “DPPH for moiety alone [%] ± SD, n = 3” value [1]?
A: The value was 87%.

Q: And the “water solubility (in words)” value [5]?
A: The value was “solubility is low”.

Q: What does the source list for `Nc1ccccc1` [Aniline, aniline]?
A: DPPH [%] ± SD, n = 3 [1, 6]: 95%; DPPH for moiety alone [%] ± SD, n = 3 [1]: 36%; water solubility (in words) [5]: high water solubility

Q: Which “DPPH [%] ± SD, n = 3” value [1, 6] does the source give for `CCOC(=O)[C@@H](N)CS` [EECyst, ethylester cysteine] here?
A: Its value is 41%.

Q: What about the “DPPH for moiety alone [%] ± SD, n = 3” value [1] of the same compound?
A: The value was 6%.

Q: For `NCCc1ccc(O)cc1` [Tyr, tyramin], which “DPPH [%] ± SD, n = 3” value [1, 6] is on record?
A: Its value is 92%.

Q: And the “DPPH for moiety alone [%] ± SD, n = 3” value [1]?
A: Its value is 85%.

Q: And the “viscosity behaviour / degradation in oxidative environment (in words)” value ([4]; CuCl2 + ascorbic acid)?
A: Its value is “more degraded than HA itself”.

Source: patent US20150306237A1, “HYALURONIC ACID-ANTIOXIDANT CONJUGATES AND THEIR USES” (priority 2012, published 2015)
